Source: patent publication US7071168B2, “Anti-cancer compounds and methods related thereto” (The Regents of the University of Colorado, priority 1998, dated 2006)

Tests used:
[1] = tested on: bradykinin response of isolated guinea pig ileum; experiment: Anti-bradykinin activity on isolated guinea pig ileum
Method in brief: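 Bradykinin concentration-effect curves were run in the absence and presence of compound. Tissue: 25 mm terminal ileum from male Hartley guinea pigs fasted overnight, held at 1 g tension in O2/CO2-bubbled Krebs' solution after 1 h equilibration.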

SCLC strain SHP-77 = experiment: Colorimetric tetrazolium (MTT) assay for cell survival, SCLC strain SHP-77; assay type: cell-based, human
Method in brief: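 MTT assay: cells seeded overnight, treated in triplicate across a concentration range for 4 days at 37 °C, 5% CO2. On day 5, MTT was added for 4 h; formazan was dissolved in acidified isopropanol and absorbance read.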

[2] = isolated guinea pig ileum, pD2 of bradykinin is 7.4, higher numbers indicate higher potency
[3] = Table 1, higher numbers indicate higher potency

Row | Compound | GPI: pA2 for bradykinin antagonist activity on isolated guinea pig ileum [1, 2] | MTT: ED50 for killing of SCLC strain SHP-77 in vitro (SCLC strain SHP-77; SCLC strain SHP-77 in vitro) [µM] | GPI: pA2 for bradykinin antagonist activity on isolated guinea pig ileum [1, 3] | MTT: ED50 for killing of SCLC strain SHP-77 in vitro (SCLC strain SHP-77; Table 1, SHP-77, MTT, 4 days) | other results
1 | c[DArg-Arg-Aud-DF5F-Oic-Arg] [M868-2] | – | – | – | – | GPI: pA2 for bradykinin antagonist activity on isolated guinea pig ileum ([1]; Table 3, cyclic peptides): 6.1; MTT: ED50 for killing of SCLC strain SHP-77 in vitro (SCLC strain SHP-77; Table 3, cyclic peptides): 9.2 µM
2 | CC1(C)CC(NC(=O)[C@H](Cc2ccc3ccccc3c2)NC(=N)CCCCCCCCCCCCC(=N)N[C@@H](Cc2ccc3ccccc3c2)C(=O)NC2CC(C)(C)NC(C)(C)C2)CC(C)(C)N1 [M254] | 5.1 | 5 | – | – | –
3 | COC(=O)CCCCCCCCC(=O)Nc1ccc(C=CC(=O)NC(Cc2csc3ccccc23)C(=O)NC2CC(C)(C)NC(C)(C)C2)cc1 (stereo not shown) [M506] | 4.9 | 11 | – | – | –
4 | CN(C(=O)C(Cc1ccc(OCc2c(Cl)cccc2Cl)cc1)NC(=O)C=Cc1cccnc1)C1CC(C)(C)NC(C)(C)C1 (stereo not shown) [M626] | 4.8 | 3.7 | – | – | –
5 | (DArg-Arg-Pro-Hyp)2Dpr-Igl-Ser-DIgl-Oic-Arg [B10098] | – | – | 5.3 | 20 µM | –
6 | F5c-MBC-Arg [M528] | – | – | Inact | Inact | –
7 | CN(C(=O)C(Cc1ccc(OCc2c(Cl)cccc2Cl)cc1)NC(=O)CCc1ccccc1)C1CC(C)(C)N(C)C(C)(C)C1 (stereo not shown) [M652] | 5.7 | 7.5 | – | – | –
8 | F5c-Lys-Ser-DF5F-Oic-Arg [M802] | – | – | 6.3 | Inact | –
9 | CN(C(=O)C(Cc1ccc(OCc2c(Cl)cccc2Cl)cc1)NC(=O)C=Cc1ccccc1)C1CC(C)(C)NC(C)(C)C1 (stereo not shown) [M628] | 5.2 | 1.6 | – | – | –
10 | CC1(C)CC(NC(=O)C(Cc2ccc3ccccc3c2)NC(=O)CCSSCCC(=O)NC(Cc2ccc3ccccc3c2)C(=O)NC2CC(C)(C)NC(C)(C)C2)CC(C)(C)N1 (stereo not shown) [M286] | 5.1 | 24 | – | – | –
11 | DDD-(DArg-Arg-Aud-DTic-hPhe-Arg)2 [M770] | – | – | Inact | 8 µM | –
12 | CC1(C)CC(NC(=O)[C@@H](NC(=NC2CCCCC2)NC2CCCCC2)C2Cc3ccccc3C2)CC(C)(C)N1 [M236] | 4.7 | >50 | – | – | –
13 | c[DArg-Arg-Ava-Ser-DIgl-PFF-Arg] [M902] | – | – | – | – | GPI: pA2 for bradykinin antagonist activity on isolated guinea pig ileum ([1]; Table 3, cyclic peptides): 5.5; MTT: ED50 for killing of SCLC strain SHP-77 in vitro (SCLC strain SHP-77; Table 3, cyclic peptides): 30 µM
14 | CN(C(=O)C(Cc1ccc(OCc2c(Cl)cccc2Cl)cc1)NC(=O)C=Cc1c(F)c(F)c(F)c(F)c1F)C1CC(C)(C)N(C)C(C)(C)C1 (stereo not shown) [M622] | 5.7 | 1.2 | – | – | –
15 | SUIM-(DArg-Arg-Pro-Hyp-Gly-Igl-Ser-DIgl-Oic-Arg-NH2)2 [B10082] | – | – | 7.2 | 0.7 µM | –
16 | F5c-pABz-2Nal-Arg [M176] | – | – | 5.4 | Inact | –
17 | CC1(C)CC(NC(=O)[C@H](Cc2ccc3ccccc3c2)NC(=N)CCCCCCCCCCCCC(=N)N[C@@H](Cc2ccc3ccccc3c2)C(=O)NC2CC(C)(C)NC(C)(C)C2)CC(C)(C)N1 [M254-1] | 5.1 | 5 | – | – | –
18 | DDD-(Pac-hPhe-Arg)2 [M746] | – | – | Inact | Inact | –
19 | Ppa-hPhe-Arg [M708] | – | – | 5.8 | Inact | –
20 | Leu-DTrp-Phe-DTrp-DNMF-Eac2-DArg-Arg-Pro-Hyp-Gly-Igl-Ser-DIgl-Oic-Arg [B10160] | – | – | 6.3 | 10 µM | –
